US9872861B2, “Methods of treatment using selective Bcl-2 inhibitors” (AbbVie Inc., priority 2010, dated 2018)
Read-outs that look alike come from different tables or passages of the source. Marks after values point to notes of the source that are not given here.

Experiments:
[1] = system: FL5.12-Bcl-2 cells; assay: Cellular efficacy in FL5.12 cells dependent on Bcl-2; format: cell-based, murine; details: Mus musculus, 3% FBS
[2] = system: peripheral blood immune cells; assay: Peripheral blood lymphocytes in C57BL/6 mice, Cell Dyn hematology analyzer; format: in vivo; details: for inhibition in vivo at 100 mg/kg: Mus musculus, Lymphocyte
Procedure: The effect of the Bcl-2 selective/Bcl-XL sparing compounds on peripheral blood immune cells was also evaluated in C57BL/6 mice. Mice were treated four days with individual compounds (100 mg/kg, orally every day) and cell numbers were measured with a Cell Dyn hematology analyzer.

[3] = system: H146 cells; assay: Cellular efficacy in Bcl-XL dependent tumor cell line H146; format: cell-based; details: Homo sapiens, NCI-H146; 10% HS
[4] = system: RS4;11 cells; assay: Cellular efficacy in Bcl-2 dependent tumor cell line RS4;11; format: cell-based, human; details: Homo sapiens, RS4-11; 10% HS
[5] = target: Bcl-XL (Homo sapiens, UniProt Q07817); assay: TR FRET competitive binding affinity, Bcl-XL; details: read-out: Target Affinity TR FRET, Bcl-XL
Procedure: (§1) A comparison of the binding affinity for each of the compounds was performed to determine target affinity, as measured by Time-Resolved Fluorescence Resonance Energy Transfer (TR FRET).

[6] = system: FL5.12-Bcl-XL cells; assay: Cellular efficacy in FL5.12 cells dependent on Bcl-XL; format: cell-based, murine; details: Mus musculus, 3% FBS
[7] = target: Bcl-2 (Homo sapiens, UniProt P10415); assay: TR FRET competitive binding affinity, Bcl-2; details: read-out: Target Affinity TR FRET, Bcl-2
Procedure: as §1

[8] = target: Mcl-1 (Homo sapiens, UniProt Q07820); assay: TR FRET competitive binding affinity, Mcl-1; details: read-out: Target Affinity TR FRET, Mcl-1
Procedure: as §1

[9] = system: IFNα-induced (NZB×NZW)F1 lupus model; assay: IFNα-induced (NZB×NZW)F1 lupus model: proteinuria, survival, lymphopenia; format: in vivo, (NZB×NZW)F1 mice; details: 100 mg/kg/day orally
Procedure: Treatment was initiated in a late-prophylactic mode (7 days after IFNα adenovirus). […] All treatment groups were administered treatment 7 days after adenovirus injection. Following adenovirus injection, mice were monitored weekly for proteinuria (PU) using Albustix test strips (VWR). Severe PU was defined by consecutive weekly measurements of PU≧300 mg/dl. When mice became moribund, they were sacrificed according to Institutional Animal Care and Use Committee protocols.

[10] = system: spontaneous (NZB×NZW)F1 murine model of lupus; assay: Spontaneous (NZB×NZW)F1 murine model of lupus: proteinuria, survival, lymphopenia; format: in vivo, (NZB×NZW)F1 mice; details: Week 47, 100 mg/kg daily oral
Excerpt: (See Liu, K. and C. Mohan, What do mouse models teach us about human SLE? Clin Immunol, 2006. 119(2): p. 123-30) This model has been well-characterized with respect to the patho-physiological changes analogous to those of human SLE. […] Renal histopathological changes include severe glomerulonephritis, mesangial and peripheral proliferative changes, capillary membrane thickening, tubular atrophy, and infiltration of lymphocytes and monocytes/macrophages as in the majority of human SLE patients. These changes result in disruption of kidney function as evidenced by severe proteinuria (PU) greater than 300 mg/dL as measured by albumin sticks, followed by mortality as measured by survival. […] (See Gelfand, M. C. and A. D. Steinberg, Therapeutic studies in NZB-W mice. II. Relative efficacy of azathioprine, cyclophosphamide and methylprednisolone. Arthritis Rheum, 1972. 15(3): p. 247-52; and Ramos, M. A., et al., Modulation of autoantibody production by mycophenolate mofetil: effects on the development of SLE in (NZB×NZW)F1 mice. Nephrol Dial Transplant, 2003. 18(5): p. 878-83)
(NZB×NZW)F1 females were purchased from The Jackson Laboratory (Bar Harbor, Me., USA) and maintained in a conventional animal housing facility throughout the experiment. […] Proteinuria (PU) and survival were monitored weekly, followed by biweekly measurement of lymphocyte and platelet counts, and anti-ds DNA production. PK parameters were also measured throughout the study. Impact on IgG deposition and renal pathology were assessed at the conclusion of the study. Severe PU was defined by two consecutive weekly measurements of PU 300 mg/dl using Albustix test strips (VWR). When mice became moribund, they were sacrificed according to Institutional Animal Care and Use Committee protocols. PU and survival data were presented as Kaplan-Meyer survival curves using Graphpad Prism software and group differences were considered significant at the level of p<0.05. Histologic scores were analyzed using ANOVA analysis. Anti-ds DNA were analyzed using one-way ANOVA analysis and Tukey post-test.

[11] = 24 h, 1 oral dose of 100 mg/kg, read-out: Day 1 % Reduction vs. Vehicle
[12] = 96 h, 4 oral doses of 100 mg/kg, read-out: Day 4 % Reduction vs. Vehicle

Bcl-XL, sequence (Q07817 whole entry): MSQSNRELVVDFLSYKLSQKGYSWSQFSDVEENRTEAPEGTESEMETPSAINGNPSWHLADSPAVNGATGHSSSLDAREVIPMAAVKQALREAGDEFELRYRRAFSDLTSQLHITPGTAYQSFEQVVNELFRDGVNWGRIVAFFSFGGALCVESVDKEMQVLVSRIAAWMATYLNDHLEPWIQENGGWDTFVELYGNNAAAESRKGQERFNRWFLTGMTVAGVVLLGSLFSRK
Bcl-2, sequence (P10415 whole entry): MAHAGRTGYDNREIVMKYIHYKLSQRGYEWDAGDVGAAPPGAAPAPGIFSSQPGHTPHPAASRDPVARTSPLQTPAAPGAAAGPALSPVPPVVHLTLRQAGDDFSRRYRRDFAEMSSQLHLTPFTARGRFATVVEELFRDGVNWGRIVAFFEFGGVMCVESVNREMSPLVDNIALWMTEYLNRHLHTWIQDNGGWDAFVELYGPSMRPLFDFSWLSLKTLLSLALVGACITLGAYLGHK
Mcl-1, sequence (Q07820 whole entry): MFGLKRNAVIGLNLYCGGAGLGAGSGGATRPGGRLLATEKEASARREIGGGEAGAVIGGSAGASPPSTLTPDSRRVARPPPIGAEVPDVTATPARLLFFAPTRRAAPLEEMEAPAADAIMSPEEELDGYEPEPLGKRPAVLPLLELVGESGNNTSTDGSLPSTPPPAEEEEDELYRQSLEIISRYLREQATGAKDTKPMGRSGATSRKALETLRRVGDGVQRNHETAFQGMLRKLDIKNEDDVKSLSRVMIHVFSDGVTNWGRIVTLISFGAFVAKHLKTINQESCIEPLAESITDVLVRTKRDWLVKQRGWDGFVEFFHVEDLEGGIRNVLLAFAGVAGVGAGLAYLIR

## CC1(C)CCC(CN2CCN(c3ccc(C(=O)NS(=O)(=O)c4ccc(N[C@H]5CC[C@H](N6CCOCC6)CC5)c([N+](=O)[O-])c4)c(Oc4cnc5[nH]ccc5c4)c3)CC2)=C(c2ccc(Cl)cc2)C1 [Compound 4, Trans-4-(4-{[2-(4-chlorophenyl)-4,4-dimethylcyclohex-1-en-1-yl]methyl}piperazin-1-yl)-N-({4-[(4-morpholin-4-ylcyclohexyl)amino]-3-nitrophenyl}sulfonyl)-2-(1H-pyrrolo[2,3-b]pyridin-5-yloxy)benzamide]
[1]
  EC50: 1.2 nM
[2]; 1 oral dose of 100 mg/kg
  Day 1 Lymphocytes: 2.62 ×10^6
[2]; 4 oral doses of 100 mg/kg
  Day 4 lymphocytes: 1.72 ×10^6
[2]; [11]
  inhibition in vivo at 100 mg/kg: 57%
[2]; [12]
  inhibition in vivo at 100 mg/kg: 73%
[3]
  EC50: > 5000 nM
[4]
  EC50: 32 nM
[5]
  Ki: 7.2 nM
[6]
  EC50: 70 nM

## CO[C@H]1CC[C@H](CNc2ccc(S(=O)(=O)NC(=O)c3ccc(N4CCN(CC5=C(c6ccc(Cl)cc6)CC(C)(C)CC5)CC4)cc3Oc3cnc4[nH]ccc4c3)cc2[N+](=O)[O-])CC1 [Compound 5, Trans-4-(4-{[2-(4-chlorophenyl)-4,4-dimethylcyclohex-1-en-1-yl]methyl}piperazin-1-yl)-N-[(4-{[(4-methoxycyclohexyl)methyl]amino}-3-nitrophenyl)sulfonyl]-2-(1H-pyrrolo[2,3-b]pyridin-5-yloxy)benzamide]
[1]
  EC50: 1.2 nM
[2]; 1 oral dose of 100 mg/kg
  Day 1 Lymphocytes: 0.98 ×10^6
[2]; 4 oral doses of 100 mg/kg
  Day 4 lymphocytes: 1.02 ×10^6
[2]; [11]
  inhibition in vivo at 100 mg/kg: 84%
[2]; [12]
  inhibition in vivo at 100 mg/kg: 84%
[7]
  Ki: < 0.01 nM
[3]
  EC50: > 5000 nM
[4]
  EC50: 8 nM
[5]
  Ki: 126 nM
[6]
  EC50: 67 nM

## CC1(C)CCC(CN2CCN(c3ccc(C(=O)NS(=O)(=O)c4ccc(NC[C@H]5CN(C6CC6)CCO5)c([N+](=O)[O-])c4)c(Oc4cnc5[nH]ccc5c4)c3)CC2)=C(c2ccc(Cl)cc2)C1 [Compound 7, 4-(4-{[2-(4-chlorophenyl)-4,4-dimethylcyclohex-1-en-1-yl]methyl}piperazin-1-yl)-N-{[4-({[(2S)-4-cyclopropylmorpholin-2-yl]methyl}amino)-3-nitrophenyl]sulfonyl}-2-(1H-pyrrolo[2,3-b]pyridin-5-yloxy)benzamide]
[2]; 1 oral dose of 100 mg/kg
  Day 1 Lymphocytes: 0.89 ×10^6
[2]; 4 oral doses of 100 mg/kg
  Day 4 lymphocytes: 0.95 ×10^6
[2]; [11]
  inhibition in vivo at 100 mg/kg: 85%
[2]; [12]
  inhibition in vivo at 100 mg/kg: 85%
[3]
  EC50: 926 nM
[4]
  EC50: 2.7 nM
[5]
  Ki: 9.4 nM

## CN1CCN(Nc2ccc(S(=O)(=O)NC(=O)c3ccc(N4CCN(CC5=C(c6ccc(Cl)cc6)CC(C)(C)CC5)CC4)cc3Oc3cnc4[nH]ccc4c3)cc2[N+](=O)[O-])CC1 [Compound 10, 4-(4-{[2-(4-chlorophenyl)-4,4-dimethylcyclohex-1-en-1-yl]methyl}piperazin-1-yl)-N-({4-[(4-methylpiperazin-1-yl)amino]-3-nitrophenyl}sulfonyl)-2-(1H-pyrrolo[2,3-b]pyridin-5-yloxy)benzamide]
[1]
  EC50: 12 nM
[8]
  Ki: > 440 nM
[2]; 1 oral dose of 100 mg/kg
  Day 1 Lymphocytes: 2.25 ×10^6
[2]; 4 oral doses of 100 mg/kg
  Day 4 lymphocytes: 2.48 ×10^6
[2]; [11]
  inhibition in vivo at 100 mg/kg: 65%
[2]; [12]
  inhibition in vivo at 100 mg/kg: 71%
[3]
  EC50: 2900 nM
[4]
  EC50: 31 nM
[5]
  Ki: 21 nM
[6]
  EC50: 273 nM

## CC1(C)CCC(CN2CCN(c3ccc(C(=O)NS(=O)(=O)c4ccc(OCC5(F)CCN(C6COC6)CC5)c(Cl)c4)c(Oc4cnc5[nH]ccc5c4)c3)CC2)=C(c2ccc(Cl)cc2)C1 [Compound 11, N-[(3-chloro-4-{[4-fluoro-1-(oxetan-3-yl)piperidin-4-yl]methoxy}phenyl)sulfonyl]-4-(4-{[2-(4-chlorophenyl)-4,4-dimethylcyclohex-1-en-1-yl]methyl}piperazin-1-yl)-2-(1H-pyrrolo[2,3-b]pyridin-5-yloxy)benzamide]
[2]; 1 oral dose of 100 mg/kg
  Day 1 Lymphocytes: 1.76 ×10^6
[2]; 4 oral doses of 100 mg/kg
  Day 4 lymphocytes: 1.71 ×10^6
[2]; [11]
  inhibition in vivo at 100 mg/kg: 73%
[2]; [12]
  inhibition in vivo at 100 mg/kg: 80%
[3]
  EC50: 2990 nM
[4]
  EC50: 12 nM
[5]
  Ki: 12 nM

## CC1(C)CCC(CN2CCN(c3ccc(C(=O)NS(=O)(=O)c4cnc(OCC5(F)CCOCC5)c(Cl)c4)c(Oc4cccc5[nH]ncc45)c3)CC2)=C(c2ccc(Cl)cc2)C1 [Compound 12, N-({5-chloro-6-[(4-fluorotetrahydro-2H-pyran-4-yl)methoxy]pyridin-3-yl}sulfonyl)-4-(4-{[2-(4-chlorophenyl)-4,4-dimethylcyclohex-1-en-1-yl]methyl}piperazin-1-yl)-2-(1H-indazol-4-yloxy)benzamide]
[1]
  EC50: 2.3 nM
[2]; 1 oral dose of 100 mg/kg
  Day 1 Lymphocytes: 1.44 ×10^6
[2]; 4 oral doses of 100 mg/kg
  Day 4 lymphocytes: 2.21 ×10^6
[2]; [11]
  inhibition in vivo at 100 mg/kg: 78%
[2]; [12]
  inhibition in vivo at 100 mg/kg: 74%
[7]
  Ki: < 0.01 nM
[3]
  EC50: 2750 nM
[4]
  EC50: 17 nM
[5]
  Ki: 23 nM
[6]
  EC50: 59 nM

## CC1(C)CCC(CN2CCN(c3ccc(C(=O)NS(=O)(=O)c4cnc(OC[C@H]5CC[C@H](O)CC5)c(Cl)c4)c(Oc4cc(F)cc5[nH]ncc45)c3)CC2)=C(c2ccc(Cl)cc2)C1 [Compound 14, N-({5-chloro-6-[(trans-4-hydroxycyclohexyl)methoxy]pyridin-3-yl}sulfonyl)-4-(4-{[2-(4-chlorophenyl)-4,4-dimethylcyclohex-1-en-1-yl]methyl}piperazin-1-yl)-2-[(6-fluoro-1H-indazol-4-yl)oxy]benzamide]
[2]; 1 oral dose of 100 mg/kg
  Day 1 Lymphocytes: 3.02 ×10^6
[2]; 4 oral doses of 100 mg/kg
  Day 4 lymphocytes: 2.33 ×10^6
[2]; [11]
  inhibition in vivo at 100 mg/kg: 54%
[2]; [12]
  inhibition in vivo at 100 mg/kg: 73%
[7]
  Ki: < 0.01 nM
[3]
  EC50: 3540 nM
[4]
  EC50: 22 nM
[5]
  Ki: 20 nM

## CC1(C)CCC(CN2CCN(c3ccc(C(=O)NS(=O)(=O)c4ccc(OCC5(F)CCOCC5)c(Cl)c4)c(Oc4cnc5[nH]ccc5c4)c3)CC2)=C(c2ccc(Cl)cc2)C1 [Compound 15, N-({3-chloro-4-[(4-fluorotetrahydro-2H-pyran-4-yl)methoxy]phenyl}sulfonyl)-4-(4-{[2-(4-chlorophenyl)-4,4-dimethylcyclohex-1-en-1-yl]methyl}piperazin-1-yl)-2-(1H-pyrrolo[2,3-b]pyridin-5-yloxy)benzamide]
[2]; 1 oral dose of 100 mg/kg
  Day 1 Lymphocytes: 1.85 ×10^6
[2]; 4 oral doses of 100 mg/kg
  Day 4 lymphocytes: 1.65 ×10^6
[2]; [11]
  inhibition in vivo at 100 mg/kg: 72%
[2]; [12]
  inhibition in vivo at 100 mg/kg: 81%
[3]
  EC50: > 5000 nM
[4]
  EC50: 35 nM
[5]
  Ki: 61 nM

## CC1(C)CCC(CN2CCN(c3ccc(C(=O)NS(=O)(=O)c4ccc(OCC5(F)CCOCC5)c([N+](=O)[O-])c4)c(Oc4cnc5[nH]ccc5c4)c3)CC2)=C(c2ccc(Cl)cc2)C1 [Compound 16, 4-(4-{[2-(4-chlorophenyl)-4,4-dimethylcyclohex-1-en-1-yl]methyl}piperazin-1-yl)-N-({4-[(4-fluorotetrahydro-2H-pyran-4-yl)methoxy]-3-nitrophenyl}sulfonyl)-2-(1H-pyrrolo[2,3-b]pyridin-5-yloxy)benzamide]
[1]
  EC50: 0.7 nM
[2]; 1 oral dose of 100 mg/kg
  Day 1 Lymphocytes: 1.77 ×10^6
[2]; 4 oral doses of 100 mg/kg
  Day 4 lymphocytes: 1.99 ×10^6
[2]; [11]
  inhibition in vivo at 100 mg/kg: 73%
[2]; [12]
  inhibition in vivo at 100 mg/kg: 77%
[3]
  EC50: 3930 nM
[4]
  EC50: 2.1 nM
[5]
  Ki: 15 nM
[6]
  EC50: 31 nM

## COc1c(C)c2c(c(O)c1C/C=C(\C)CCC(=O)OCCN1CCOCC1)C(=O)OC2 [MMF, mycophenolate mofetil, reference compound]
[9]
  % Mice with PU < 300 mg/dL: 40* %
  % Survival: 72* %
[10]
  % Mice with PU < 300 mg/dL: 94* %
  % Survival: 100* %
